Source: patent US10882856B2 (BeiGene, Ltd., priority 2017, dated 2021)

Experiments:
[1] = target: T1, cellular TDO2 in HEK293-TDO2 cells (Homo sapiens, UniProt P48775); experiment: 293-TDO2 cell-based assay (Kyn colorimetric); settings: 48 hours of incubation
T1 construct: expressed in transfected cells; host or cells: HEK293 (ATCC), stably transfected
Description: The inhibitory activity of TDO2 inhibitors is determined by using a colorimetric reaction to measure Kyn generated from L-Trp (L-Tryptophon) oxidation by cellular TDO2 in HEK293-TDO2 cells stably transfected with a plasmid expression of Tryptophan 2,3-dioxygenase (for short, 293-TDO2).
HEK293 cells were obtained from the American Type Culture Collection and 293-TDO2 were recovered in 10% FBS-containing phenol red-free DMEM medium. Cells were plated onto a 96-well plate (100 μl/well) at 10000 cells per well and kept at 37° C. in a humidified incubator supplied with 5% CO2. 4 hours later, Compounds at different concentrations diluted in dimethylsulfoxide (DMSO) were added to plate. Cells were kept at 37° C. in a humidified incubator supplied with 5% CO2. After 48 hours of incubation, 100 μl supernatant from each well was removed to a new plate. The protein in the medium was precipitated with the addition of 8 μl 6N trichloroacetic acid. The plate was incubated at 60° C. for 30 minutes and then centrifugation at 2500 rpm for 10 minutes to remove sediments. 80 μl supernatants were carefully removed to a new clean plate and added with an equal volume of 2% 4-(Dimethylamino) benzaldehyde (D2004, sigma) dissolved in glacial acetic acid. The absorbance at 480 nm wavelength derived from Kyn was measured using a PHERAstar FS plate reader (BMG LABTECH). The IC50 for each compound was derived from fitting the dose-response data to the four-parameter logistic model by using XLfit software (IDBS).

IDO1 [2] = target: T2, IDO1 (Homo sapiens, UniProt P14902); experiment: Hela cell-based IDO1 assay; settings: Hela cells
T2 sequence (P14902 whole entry): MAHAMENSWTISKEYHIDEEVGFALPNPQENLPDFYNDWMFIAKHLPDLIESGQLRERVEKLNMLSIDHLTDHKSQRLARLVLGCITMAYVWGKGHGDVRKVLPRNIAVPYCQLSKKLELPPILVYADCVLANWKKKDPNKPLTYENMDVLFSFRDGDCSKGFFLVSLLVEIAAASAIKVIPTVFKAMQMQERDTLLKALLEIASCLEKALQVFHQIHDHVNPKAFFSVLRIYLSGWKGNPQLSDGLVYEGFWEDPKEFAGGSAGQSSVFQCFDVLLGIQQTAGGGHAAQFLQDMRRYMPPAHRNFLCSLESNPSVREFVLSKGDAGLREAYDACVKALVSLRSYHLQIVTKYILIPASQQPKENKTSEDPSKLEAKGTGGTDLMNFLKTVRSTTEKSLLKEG
In short: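 HeLa cells were seeded at 8000 per well in 96-well plates in phenol red-free DMEM with 10% FBS. After 4 hours, DMSO-diluted compound dilutions were added with IFN-γ (final 100 ng/mL) and 0.4 mM L-Trp, and cells were kept 48 hours at 37 °C, 5% CO2. Supernatant was deproteinised with trichloroacetic acid, and kynurenine was measured at 480 nm after adding 2% 4-(dimethylamino)benzaldehyde. Potency came from four-parameter logistic fits in XLfit.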

IDO1 [3] = target: T2, IDO1; experiment: IDO1 enzymatic assay; assay type: biochemical; design: His tag (N); made in house; host or cells: E. coli; settings: read-out: Enzyme IC50 IDO1
In short: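 Assays were run in 50 mM potassium phosphate pH 7.5 with 0.1% BSA for 1.5 hours at 24 °C. Each contained 50 nM E. coli-purified, N-terminally His-tagged IDO1, compound, 1.3 mM D-tryptophan, 5 mM L-ascorbic acid, methylene blue and 0.4 mg/mL catalase. IC50 was calculated from remaining enzyme activity across a rising compound series, with activity taken as the slope of N'-formylkynurenine formation read continuously at 321 nm for 1 hour.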

T1 sequence (P48775 whole entry): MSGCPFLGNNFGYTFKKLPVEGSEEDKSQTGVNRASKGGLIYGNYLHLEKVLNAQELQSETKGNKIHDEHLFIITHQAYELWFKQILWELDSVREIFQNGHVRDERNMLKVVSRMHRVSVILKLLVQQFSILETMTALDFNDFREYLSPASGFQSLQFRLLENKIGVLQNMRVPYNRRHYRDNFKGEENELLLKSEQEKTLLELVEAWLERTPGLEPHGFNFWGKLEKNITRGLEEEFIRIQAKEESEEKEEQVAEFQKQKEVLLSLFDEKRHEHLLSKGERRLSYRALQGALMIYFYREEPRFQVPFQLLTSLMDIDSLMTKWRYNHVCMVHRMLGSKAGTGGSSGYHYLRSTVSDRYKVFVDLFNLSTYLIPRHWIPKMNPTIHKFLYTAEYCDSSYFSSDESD

Row | SMILES | EC50 [1] [nM] | EC50 (IDO1 [2]) [nM] | IC50 (IDO1 [3]) [nM]
1 | O[C@@H](c1c(C2CC2)ccn2cncc12)[C@H]1CC[C@H](c2ccc(F)c(Cl)c2)CC1 (single isomer, unassigned) [Example C132b] | > 10000 | > 10000 | 2500
2 | COCCOc1ccc([C@H]2CC[C@H]([C@@H](O)c3c(C4CC4)ccn4cncc34)CC2)cc1 (single isomer, unassigned) [Example C103b] | > 10000 | 2980 | 1200
3 | OC(c1c(C2CC2)ccc2cncn12)C1CCC(c2ccc(OC3COC3)cc2)CC1 (stereo not drawn) [Example D109, (6-cyclopropylimidazo[1,5-a]pyridin-5-yl)(4-(4-(oxetan-3-yloxy)phenyl)cyclohexyl)methanol] | > 10000 | 206 | 39
4 | O[C@@H](c1c(C2CC2)ccc2cncn12)C1CCN(c2cccc(Cl)c2)CC1 (single isomer, unassigned) [Example D173b] | > 10000 | 7390 | 2700
5 | O[C@H](c1c(C2CC2)ccc2cncn12)[C@H]1CC[C@H](c2ccc(F)c(Cl)c2)CC1 (single isomer, unassigned) [Example D129a] | > 10000 | 56 | 21
6 | O[C@@H](c1c(C2CC2)ccn2cncc12)[C@H]1CC[C@H](c2ccccc2C(F)(F)F)CC1 (single isomer, unassigned) [Example C116b] | > 10000 | > 10000 | 5400
7 | Oc1ccccc1[C@H]1CC[C@H]([C@@H](O)c2c(C3CC3)ccc3cncn23)CC1 (single isomer, unassigned) [Example D112b] | > 10000 | > 10000 | 1700
8 | OC(c1c(C2CC2)ccn2cncc12)C1CCC(c2ccc(OC3CCOCC3)cc2)CC1 (stereo not drawn) [Example C119, (7-cyclopropylimidazo[1,5-a]pyridin-8-yl)(4-(4-((tetrahydro-2H-pyran-4-yl)oxy)phenyl)cyclohexyl)methanol] | > 10000 | 148 | 39
9 | OC(c1c(C2CC2)ccc2cncn12)[C@H]1CC[C@@H](c2ccc(Cl)cc2)CC1 (single isomer, unassigned) [Example D103a] | > 10000 | > 10000 | 1900
10 | O[C@@H](c1c(C2CC2)ccc2cncn12)[C@H]1CC[C@H](c2cccc3ccccc32)CC1 (single isomer, unassigned) [Example D135b] | > 10000 | 6750 | 5200
11 | O[C@H](c1c(C2CC2)ccn2cncc12)[C@H]1CC[C@H](c2cccc3ncccc32)CC1 (single isomer, unassigned) [Example C126a] | > 10000 | 20 | 16
12 | O[C@H](c1c(C2CC2)ccc2cncn12)[C@H]1CC[C@H](c2ccnc3ccc(F)cc32)CC1 (single isomer, unassigned) [Example D150a] | > 10000 | 18 | 16
13 | O[C@H](c1c(C2CC2)ccc2cncn12)[C@H]1CC[C@H](c2ccccc2Cl)CC1 (single isomer, unassigned) [Example D117a] | > 10000 | 492 | 30
14 | NC(=O)c1ccc([C@H]2CC[C@H]([C@H](O)c3c(C4CC4)ccc4cncn34)CC2)cc1 [Example D153, 4-((1S,4r)-4-(S)-(6-cyclopropylimidazo[1,5-a]pyridin-5-yl(hydroxy)methyl)cyclohexyl)benzamide] | > 10000 | 145 | 11
15 | O[C@H](c1c(C2CC2)ccn2cncc12)[C@H]1CC[C@H](c2ccc(F)c(Cl)c2)CC1 (single isomer, unassigned) [Example C132a] | > 10000 | 188 | 64
16 | O[C@@H](c1c(C2CC2)ccc2cncn12)[C@H]1CC[C@H](c2ccc(Oc3ccccc3)cc2)CC1 (single isomer, unassigned) [Example D120b] | > 10000 | 4310 | 3700

Row | SMILES | EC50 [1] [nM] | EC50 (IDO1 [2]) [nM] | IC50 (IDO1 [3]) [nM]
17 | CC(C)c1ccc2cncn2c1C(O)C1CCC(c2ccc(Cl)cc2)CC1 (stereo not drawn) [Example D115, (4-(4-chlorophenyl)cyclohexyl)(6-isopropylimidazo[1,5-a]pyridin-5-yl)methanol] | > 10000 | 157 | 57
18 | O[C@@H](c1c(C2CC2)ccc2cncn12)[C@H]1CC[C@H](c2ccccc2)CC1 (single isomer, unassigned) [Example D101b] | > 10000 | 6140 | 1300
19 | O[C@H](c1c(C2CC2)ccc2cncn12)[C@H]1CC[C@H](c2cc(F)cc(F)c2)CC1 (single isomer, unassigned) [Example D144a] | > 10000 | 52 | 23
20 | OC(c1c(C2CC2)ccc2cncn12)C1CCC(c2ccnc3ccccc23)CC1 (stereo not drawn) [Example D140, (6-cyclopropylimidazo[1,5-a]pyridin-5-yl)(4-(quinolin-4-yl)cyclohexyl)methanol] | > 10000 | 42 | 24
21 | OC(c1c(C2CC2)ccc2cncn12)C1CCC(c2ccc3ccsc3c2)CC1 (stereo not drawn) [Example D134, (4-(benzo[b]thiophen-6-yl)cyclohexyl)(6-cyclopropylimidazo[1,5-a]pyridin-5-yl)methanol] | > 10000 | 364 | 61
22 | O[C@@H](c1c(C2CC2)ccn2cncc12)[C@H]1CC[C@H](c2ccc(Cl)cc2)CC1 (single isomer, unassigned) [Example C102b] | > 10000 | > 10000 | > 10000
23 | COc1cccc([C@H]2CC[C@H]([C@@H](O)c3c(C4CC4)ccn4cncc34)CC2)c1 (single isomer, unassigned) [Example C114b] | > 10000 | > 10000 | 4700
24 | OC(c1c(C2CC2)ccn2cncc12)C1CCN(c2cccc(F)c2)CC1 (stereo not drawn) [Example C138, (7-cyclopropylimidazo[1,5-a]pyridin-8-yl)(1-(3-fluorophenyl)piperidin-4-yl)methanol] | > 10000 | 149 | 67
25 | NC(=O)Nc1ccc([C@H]2CC[C@H]([C@H](O)c3c(C4CC4)ccc4cncn34)CC2)cc1 [Example D160, 1-(4-((1S,4r)-4-((S)-(6-cyclopropylimidazo[1,5-a]pyridin-5-yl)(hydroxy)methyl)cyclohexyl)phenyl)urea] | > 10000 | 128 | 15
26 | CC(C)c1ccc2cncn2c1C(O)C1CCC(c2ccc(F)cc2)CC1 (stereo not drawn) [Example D166, (4-(4-fluorophenyl)cyclohexyl)(6-isopropylimidazo[1,5-a]pyridin-5-yl)methanol] | > 10000 | 29 | 41
27 | COc1cccc(C2CCC(C(O)c3c(C(C)C)ccc4cncn34)CC2)c1 (stereo not drawn) [Example D169, (6-isopropylimidazo[1,5-a]pyridin-5-yl)(4-(3-methoxyphenyl)cyclohexyl)methanol] | > 10000 | 22 | 28
28 | OC(c1c(C2CC2)ccn2cncc12)C1CCN(c2ccc(F)cc2)CC1 (single isomer, unassigned) [Example C137a] | > 10000 | 74 | 26
29 | OC(c1c(C2CC2)ccc2cncn12)C1CCC(c2ccc(OC3CCOCC3)cc2)CC1 (stereo not drawn) [Example D114, (6-cyclopropylimidazo[1,5-a]pyridin-5-yl)(4-(4-((tetrahydro-2H-pyran-4-yl)oxy)phenyl)cyclohexyl)methanol] | > 10000 | 155 | 32
30 | O[C@@H](c1c(C2CC2)ccn2cncc12)[C@H]1CC[C@H](c2ccc(OC(F)(F)F)cc2)CC1 (single isomer, unassigned) [Example C105b] | > 10000 | > 10000 | 2000
31 | OC(c1c(C2CC2)ccn2cncc12)C1CCN(c2cccc(Cl)c2)CC1 (stereo not drawn) [Example C140, (1-(3-chlorophenyl)piperidin-4-yl)(7-cyclopropylimidazo[1,5-a]pyridin-8-yl)methanol] | > 10000 | 304 | 140
32 | Nc1ccc([C@H]2CC[C@H]([C@@H](O)c3c(C4CC4)ccc4cncn34)CC2)cc1 (single isomer, unassigned) [Example D122b] | > 10000 | > 10000 | 5200
